Laboratory results as given in PMC12892976, “Alkylation-based optimization of antifungal FPPS inhibitors yields a potent, broad-spectrum lipophilic zoledronate derivative” (mBio, 2025).
Values after ≈ are worked out from the molar mass of the structure shown.

Assays:
[1] = tested on: Candida albicans; assay: checkerboard drug interaction (FICI, MICc);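 on all read-outs here: antifungal plus FPPS inhibitor combinations on Candida albicans tested by a simplified diagonal checkerboard screen, with FICI calculated under the Loewe additivity model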; type: cell-based; conditions: C. albicans; for INH FD (MIC-MICc fold decrease): fold decrease of inhibitor MIC
Method: (§1) Drug interactions between antifungals and FPPS inhibitors were investigated using a simplified checkerboard diagonal screening method ([45]). […] FICIs were determined according to the Loewe additivity model ([17]).

[2] = tested on: Aspergillus flavus; assay: checkerboard drug interaction (FICI, MICc);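 further: simplified diagonal checkerboard screen pairing azole antifungals with FPPS inhibitors, FICI calculated under the Loewe additivity model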; type: cell-based; design: INH MICc (KET:INH) / INH MICc (FLC:INH): unit not given beside the values; conditions: A. flavus
[3] = tested on: Aspergillus fumigatus; assay: checkerboard drug interaction (FICI, MICc);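 on all read-outs here: simplified diagonal checkerboard screen pairing antifungals with FPPS inhibitors against Aspergillus fumigatus, with FICI calculated under the Loewe additivity model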; type: cell-based; conditions: A. fumigatus; for INH FD (MIC-MICc fold decrease): fold decrease of inhibitor MIC
Method: as §1

[4] = tested on: Trichophyton rubrum; assay: MIC/MFC broth microdilution (CLSI); conditions: Trichophyton rubrum
Method: (§2) Antifungal susceptibility was determined by broth microdilution according to the CLSI guidelines described in M27-Ed4 ([16]). […] MFC was determined by back-plating drug-treated cultures from MIC broths onto SDA plates. The MFC was defined as the lowest concentration from which no colonies could be cultured.

[5] = tested on: Cryptococcus deuterogattii; assay: checkerboard drug interaction (FICI, MICc);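 on all read-outs here: simplified diagonal checkerboard screen pairing antifungal drugs with FPPS inhibitors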; type: cell-based; conditions: C. deuterogattii; for INH FD (MIC-MICc fold decrease): fold decrease of inhibitor MIC
Method: as §1

[6] = tested on: Candida glabrata; assay: checkerboard drug interaction (FICI, MICc);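 on all read-outs here: simplified diagonal checkerboard screen pairing antifungals with FPPS inhibitors, FICI calculated under the Loewe additivity model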; type: cell-based; conditions: C. glabrata; for INH FD (MIC-MICc fold decrease): fold decrease of inhibitor MIC
Method: as §1

[7] = tested on: Aspergillus fumigatus; assay: MIC/MFC broth microdilution (CLSI); conditions: ATCC204305
Method: as §2

[8] = ITR:INH combination, MIC of the inhibitor in combination with ITR
[9] = ITR:INH combination, fold decrease of ITR MIC
[10] = KET:INH combination, MIC of the inhibitor in combination with KET
[11] = KET:INH combination, fold decrease of KET MIC
[12] = FLC:INH combination, MIC of the inhibitor in combination with FLC
[13] = FLC:INH combination, fold decrease of FLC MIC

CCCCCCCCCCN1CCC[C@H]1C(=O)N[C@@H](CC(=O)OC)C(=O)OC [dmPLA10]
FICI ([1]; ITR:INH combination): 0.75
INH MICc [1, 8]: 4
ITR FD (MIC-MICc fold decrease) [1, 9]: 2
INH FD (MIC-MICc fold decrease) ([1]; ITR:INH combination): 4
FICI ([1]; KET:INH combination): 0.75
INH MICc [1, 10]: 4
KET FD (MIC-MICc fold decrease) [1, 11]: 2
INH FD (MIC-MICc fold decrease) ([1]; KET:INH combination): 4
FICI (FLC:INH) ([2]; Fractional Inhibitory Concentration Index, fluconazole + inhibitor): 2
FICI (ITR:INH) ([2]; Fractional Inhibitory Concentration Index, itraconazole + inhibitor): 1.03
FICI (KET:INH) ([2]; Fractional Inhibitory Concentration Index, ketoconazole + inhibitor): 1.5
INH MICc (FLC:INH) ([2]; MIC of the inhibitor in combination with fluconazole): 64
INH MICc (ITR:INH) ([2]; MIC of the inhibitor in combination with itraconazole): 2
INH MICc (KET:INH) ([2]; MIC of the inhibitor in combination with ketoconazole): 32
FLC FD (FLC:INH) ([2]; MIC-MICc fold decrease of fluconazole, negative = increase): 1
ITR FD (ITR:INH) ([2]; MIC-MICc fold decrease of itraconazole, negative = increase): 1
KET FD (KET:INH) ([2]; MIC-MICc fold decrease of ketoconazole, negative = increase): 1
INH FD (FLC:INH) ([2]; MIC-MICc fold decrease of the inhibitor, with fluconazole): 1
INH FD (ITR:INH) ([2]; MIC-MICc fold decrease of the inhibitor, with itraconazole): 32
INH FD (KET:INH) ([2]; MIC-MICc fold decrease of the inhibitor, with ketoconazole): 2
FICI ([3]; FLC:INH combination): 1.06
FLC MICc ([3]; FLC:INH combination, MIC of FLC in combination with the inhibitor): 8
INH MICc [3, 12]: 16
FLC FD (MIC-MICc fold decrease) [3, 13]: 16
INH FD (MIC-MICc fold decrease) ([3]; FLC:INH combination): 1
FICI ([3]; ITR:INH combination): 0.63
ITR MICc ([3]; ITR:INH combination, MIC of ITR in combination with the inhibitor): 0.063
INH MICc [3, 8]: 2
ITR FD (MIC-MICc fold decrease) [3, 9]: 2
INH FD (MIC-MICc fold decrease) ([3]; ITR:INH combination): 8
FICI ([3]; KET:INH combination): 2.25
KET MICc ([3]; KET:INH combination, MIC of KET in combination with the inhibitor): 1
INH MICc [3, 10]: 32
KET FD (MIC-MICc fold decrease) [3, 11]: 4
INH FD (MIC-MICc fold decrease) ([3]; KET:INH combination): -2
MFC [4]: > 128 µg/mL
MIC [4]: 8 µg/mL (≈ 20.1 µM)
FICI ([5]; FLC:INH combination): 0.38
INH MICc [5, 12]: 8
FLC FD (MIC-MICc fold decrease) [5, 13]: 8
INH FD (MIC-MICc fold decrease) ([5]; FLC:INH combination): 4
FICI ([5]; ITR:INH combination): 0.5
INH MICc [5, 8]: 8
ITR FD (MIC-MICc fold decrease) [5, 9]: 4
INH FD (MIC-MICc fold decrease) ([5]; ITR:INH combination): 4
FICI ([5]; KET:INH combination): 0.28
INH MICc [5, 10]: 8
KET FD (MIC-MICc fold decrease) [5, 11]: 32
INH FD (MIC-MICc fold decrease) ([5]; KET:INH combination): 4
FICI ([6]; FLC:INH combination): ≥4
INH MICc [6, 12]: 16
FLC FD (MIC-MICc fold decrease) [6, 13]: 1
INH FD (MIC-MICc fold decrease) ([6]; FLC:INH combination): 1
FICI ([6]; ITR:INH combination): 1.5
INH MICc [6, 8]: 4
ITR FD (MIC-MICc fold decrease) [6, 9]: 2
INH FD (MIC-MICc fold decrease) ([6]; ITR:INH combination): 4
FICI ([6]; KET:INH combination): 3
INH MICc [6, 10]: 8
KET FD (MIC-MICc fold decrease) [6, 11]: 1
INH FD (MIC-MICc fold decrease) ([6]; KET:INH combination): 2
MFC [7]: 128 µg/mL (≈ 321 µM)
MIC [7]: 32 µg/mL (≈ 80.3 µM)
